Source: article PMC6364417, “Kinase inhibitor library screening identifies synergistic drug combinations effective in sensitive and resistant melanoma cells” (Journal of Experimental & Clinical Cancer Research : CR, 2019)

Columns and labels:
Test in all cases: Kinase inhibitor library screening, PrestoBlue cell viability, 1 or 10 μM, 72 h
[1] = test system: IGR37-XP cells (Vemurafenib-resistant); details: IGR37 XP, 72 h; for Cell viability in kinase inhibitor library screening, IGR37 XP, 1μΜ: in %
[2] = test system: A375-GP cells (Dabrafenib-resistant); details: A375 GP, 72 h
[3] = test system: A375-XP cells (Vemurafenib-resistant); details: A375 XP, 72 h
[4] = test system: 501Mel-XP cells (Vemurafenib-resistant); details: 501Mel XP, 72 h; for Cell viability in kinase inhibitor library screening, 501Mel XP, 1μΜ / Cell viability in kinase inhibitor library screening, 501Mel XP, 10μΜ: in %
A375 cells (parental) = details: A375 Parental, 72 h
501Mel cells (parental) = details: 501Mel Parental, 72 h; for Cell viability in kinase inhibitor library screening, 501Mel Parental, 1μΜ / Cell viability in kinase inhibitor library screening, 501Mel Parental, 10μΜ: in %
How it was run: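 Kinase inhibitors added at two fixed concentrations; 72 h exposure; PrestoBlue readout; % viability vs untreated; n ≥ 2 per line.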

[5] = test system: 501Mel-GP cells (Dabrafenib-resistant); details: 501Mel GP, 72 h
[6] = test system: IGR37-GP cells (Dabrafenib-resistant); details: IGR37 GP, 72 h; for Cell viability in kinase inhibitor library screening, IGR37 GP, 1μΜ: in %
IGR37 cells (parental) = details: IGR37 Parental, 72 h; for Cell viability in kinase inhibitor library screening, IGR37 Parental, 1μΜ / Cell viability in kinase inhibitor library screening, IGR37 Parental, 10μΜ: in %

Compound: MK-2206 dihydrochloride
- cell viability (kinase inhibitor library screening) ([1]; 1μΜ): 94.6%
- cell viability (kinase inhibitor library screening) ([1]; 10μΜ): 4.2%
- cell viability (kinase inhibitor library screening) ([2]; 1μΜ): 96.2%
- cell viability (kinase inhibitor library screening) ([2]; 10μΜ): 66.2%
- cell viability (kinase inhibitor library screening) ([3]; 1μΜ): 93.8%
- cell viability (kinase inhibitor library screening) ([3]; 10μΜ): 54.1%
- cell viability (kinase inhibitor library screening) ([4]; 1μΜ): 69.2%
- cell viability (kinase inhibitor library screening) ([4]; 10μΜ): 1.7%
- cell viability (kinase inhibitor library screening) (A375 cells (parental); 10μΜ): 74.4%
- cell viability (kinase inhibitor library screening) (501Mel cells (parental); 1μΜ): 98.7%
- cell viability (kinase inhibitor library screening) (501Mel cells (parental); 10μΜ): 7.6%
- cell viability (kinase inhibitor library screening) ([5]; 1μΜ): 90.7%
- cell viability (kinase inhibitor library screening) ([5]; 10μΜ): 28.3%
- cell viability (kinase inhibitor library screening) ([6]; 1μΜ): 100.0%
- cell viability (kinase inhibitor library screening) ([6]; 10μΜ): 15.9%
- cell viability (kinase inhibitor library screening) (IGR37 cells (parental); 10μΜ): 25.6%

Compound: Cc1nc(NC(=O)N2CCC[C@H]2C(N)=O)sc1-c1ccnc(C(C)(C)C(F)(F)F)c1 [BYL719]
- Cell viability in kinase inhibitor library screening, IGR37 XP, 10μΜ ([1]; 10μΜ): 20.2%
- Cell viability in kinase inhibitor library screening, IGR37 XP, 1μΜ ([1]; 1μΜ): 80.6
- Cell viability in kinase inhibitor library screening, A375 GP, 1μΜ ([2]; 1μΜ): 86.9
- Cell viability in kinase inhibitor library screening, A375 GP, 10μΜ ([2]; 10μΜ): 52.5
- Cell viability in kinase inhibitor library screening, A375 XP, 1μΜ ([3]; 1μΜ): 93.5
- Cell viability in kinase inhibitor library screening, A375 XP, 10μΜ ([3]; 10μΜ): 62.9
- Cell viability in kinase inhibitor library screening, 501Mel XP, 1μΜ ([4]; 1μΜ): 90.3
- Cell viability in kinase inhibitor library screening, 501Mel XP, 10μΜ ([4]; 10μΜ): 56.3
- Cell viability in kinase inhibitor library screening, A375 Parental, 10μΜ (A375 cells (parental); 10μΜ): 60.2
- Cell viability in kinase inhibitor library screening, A375 Parental, 1μΜ (A375 cells (parental); 1μΜ): 93.2
- Cell viability in kinase inhibitor library screening, 501Mel Parental, 1μΜ (501Mel cells (parental); 1μΜ): 99.0
- Cell viability in kinase inhibitor library screening, 501Mel Parental, 10μΜ (501Mel cells (parental); 10μΜ): 90.7
- Cell viability in kinase inhibitor library screening, 501Mel GP, 10μΜ ([5]; 10μΜ, in %): 62.2
- Cell viability in kinase inhibitor library screening, IGR37 GP, 10μΜ ([6]; 10μΜ): 62.1%
- Cell viability in kinase inhibitor library screening, IGR37 GP, 1μΜ ([6]; 1μΜ): 90.5
- Cell viability in kinase inhibitor library screening, IGR37 Parental, 1μΜ (IGR37 cells (parental); 1μΜ): 99.1
- Cell viability in kinase inhibitor library screening, IGR37 Parental, 10μΜ (IGR37 cells (parental); 10μΜ): 77.8

Compound: CN(C)C1CCN(C(=O)c2ccc(NC(=O)Nc3ccc(-c4nc(N5CCOCC5)nc(N5CCOCC5)n4)cc3)cc2)CC1 [PF-05212384 (PKI-587)]
- Cell viability in kinase inhibitor library screening, IGR37 XP, 10μΜ ([1]; 10μΜ): 3%
- Cell viability in kinase inhibitor library screening, IGR37 XP, 1μΜ ([1]; 1μΜ): 33.0
- Cell viability in kinase inhibitor library screening, A375 GP, 1μΜ ([2]; 1μΜ): 34.6
- Cell viability in kinase inhibitor library screening, A375 GP, 10μΜ ([2]; 10μΜ): 13.9
- Cell viability in kinase inhibitor library screening, A375 XP, 1μΜ ([3]; 1μΜ): 33.4
- Cell viability in kinase inhibitor library screening, A375 XP, 10μΜ ([3]; 10μΜ): 11.6
- Cell viability in kinase inhibitor library screening, 501Mel XP, 1μΜ ([4]; 1μΜ): 53.1
- Cell viability in kinase inhibitor library screening, 501Mel XP, 10μΜ ([4]; 10μΜ): 0.9
- Cell viability in kinase inhibitor library screening, A375 Parental, 10μΜ (A375 cells (parental); 10μΜ): 13.9
- Cell viability in kinase inhibitor library screening, A375 Parental, 1μΜ (A375 cells (parental); 1μΜ): 35.9
- Cell viability in kinase inhibitor library screening, 501Mel Parental, 1μΜ (501Mel cells (parental); 1μΜ): 22.6
- Cell viability in kinase inhibitor library screening, 501Mel Parental, 10μΜ (501Mel cells (parental); 10μΜ): 1.3
- Cell viability in kinase inhibitor library screening, 501Mel GP, 1μΜ ([5]; 1μΜ, in %): 29.3
- Cell viability in kinase inhibitor library screening, 501Mel GP, 10μΜ ([5]; 10μΜ, in %): 2.2
- Cell viability in kinase inhibitor library screening, IGR37 GP, 10μΜ ([6]; 10μΜ): 6.8%
- Cell viability in kinase inhibitor library screening, IGR37 GP, 1μΜ ([6]; 1μΜ): 39.4
- Cell viability in kinase inhibitor library screening, IGR37 Parental, 1μΜ (IGR37 cells (parental); 1μΜ): 35.0
- Cell viability in kinase inhibitor library screening, IGR37 Parental, 10μΜ (IGR37 cells (parental); 10μΜ): 14.2

Compound: COc1cc2c(Oc3ccc(NC(=O)C4(C(=O)Nc5ccc(F)cc5)CC4)cc3F)ccnc2cc1OCCCN1CCOCC1 [Foretinib (GSK1363089, XL880)]
- cell viability (kinase inhibitor library screening) ([1]; 1μΜ): 81.8%
- cell viability (kinase inhibitor library screening) ([1]; 10μΜ): 0.556%
- cell viability (kinase inhibitor library screening) ([2]; 1μΜ): 67.2%
- cell viability (kinase inhibitor library screening) ([2]; 10μΜ): 0.464%
- cell viability (kinase inhibitor library screening) ([3]; 1μΜ): 75.2%
- cell viability (kinase inhibitor library screening) ([3]; 10μΜ): 0.7%
- cell viability (kinase inhibitor library screening) ([4]; 1μΜ): 47.0%
- cell viability (kinase inhibitor library screening) ([4]; 10μΜ): -0.9%
- cell viability (kinase inhibitor library screening) (A375 cells (parental); 10μΜ): 0.654%
- cell viability (kinase inhibitor library screening) (A375 cells (parental); 1μΜ): 71.0%
- cell viability (kinase inhibitor library screening) (501Mel cells (parental); 1μΜ): 84.1%
- cell viability (kinase inhibitor library screening) (501Mel cells (parental); 10μΜ): 0.153%
- cell viability (kinase inhibitor library screening) ([5]; 1μΜ): 64.6%
- cell viability (kinase inhibitor library screening) ([5]; 10μΜ): -0.6%
- cell viability (kinase inhibitor library screening) ([6]; 1μΜ): 91.3%
- cell viability (kinase inhibitor library screening) ([6]; 10μΜ): 0.8%
- cell viability (kinase inhibitor library screening) (IGR37 cells (parental); 1μΜ): 85.9%
- cell viability (kinase inhibitor library screening) (IGR37 cells (parental); 10μΜ): 0.2%
